Converted amounts (≈) assume the structure as drawn. Read-outs that look alike come from different tables or passages of the source.
What was measured:
HEK-293 = assay: Cytotoxicity experiment (MTT), HEK-293; type: cell-based; conditions: Homo sapiens, HEK293, 48 h, HEK-293 normal cells, read-out: Inhibition ratio
Experimental: (§1) (1) Inoculating cells: Experimental cells in the growth of logarithmic phase were collected and suspended. The cell concentration of the suspension was adjusted so that they could be inoculated into the wells of 96-well micro plate at a density between 10^3-10^4 cells per well (200 μl per well). (2) Culturing cells: The cells were cultured at normal conditions for 3 days and then exposed to 50 uM compounds for test. (3) Coloring reaction: At 24 h, 48 h and 72 h after the cells being exposed to the compounds for test, 200 μl culture medium containing 20 μl MTT solution (5 mg/ml) was added into each well, and the well was further incubated at 37° C. for 2 hours to terminate the incubation. After the incubation, the supernatants were removed from the wells. In the event there were suspended cells in the wells, centrifugation should be performed before removal of supernatant from the wells. After the removal, 150 μl DMSO was added to each well and mixed thoroughly by agitation for 10 mins to fully dissolve crystals. (4) Ascertainment of colorimetry: The absorbance value at 490 nm of each well was determined by Enzyme-linked immunosorbent Monitor. The growth curve of the experimental cells was plotted by taking time as x-coordinate and absorbance value as y-coordinate. In addition, an inhibition ratio could be calculated in accordance with the following formula: Inhibition ratio=(absorbance value of control group-absorbance value of administering group)/absorbance value of control group×100%.

S. agalactiae = assay: In vitro antibacterial activity (MIC), S. agalactiae; type: cell-based; conditions: Streptococcus agalactiae
Experimental: (§2) The test strain was inoculated into the liquid medium and cultured at 37° C. for 16-18 h. The culture liquid and MH medium were put into two blank wells of a 96-well plate, respectively. Then, the absorptions thereof were measured by a Microplate reader. The difference between the absorption values of the culture liquid and MH medium is the adsorption of the bacteria. The concentration of the culture liquid can be calculated according to the formula of 1OD=50 million CFU/mL. The culture liquid was diluted with the MH bouillon culture medium to 5000 CFU/mL for further use.
(§3) Compounds 12a, 13 and 14 were dissolved in DMSO to 1 mg/mL, and then filtered with a 0.22 μm filter to obtain the compound solutions. And then they were gradually diluted to a desired concentration (10× final concentration) with the liquid medium, so as to obtain a series of dilutions. The final concentration grade of the dilutions of each tested compound consists of 14 concentrations, which includes: 0.03125 μg/mL, […], 0.125 μg/mL, 0.25 μg/mL, […], 1 μg/mL, 2 μg/mL, 4 μg/mL, 8 μg/mL, 16 μg/mL, 32 μg/mL, 64 μg/mL, 128 μg/mL and 256 μg/mL.
(§4) 10 μL of each of the compound dilutions above was added into a well of a 96-well plate. 90 μL of the culture liquid (5000 CFU/mL) was added into each of the wells, respectively, mixed with the dilutions to render the tested compound concentration to the final concentration. The resulted mixture was incubated at 37° C. for 16-18 h, and then the OD630 thereof was measured. A culture liquid free of the tested compounds is used as a blank control, and three parallel tests with the same concentration of each compound were performed. The minimum inhibitory concentration (MIC) of each compound on the standard strain of Staphylococcus Aureus and other test strains was determined. Specifically, among the culture liquid contained in the wells of the micro-plate, the first three lowest concentrations under which growth of the test strains could be observed were chose for further evaluation of the MIC. A culture liquid free of tested compounds was used as a blank control. Each of the culture liquids was homogenized independently, and then was diluted with a sterile saline. Each of the diluted culture liquids was plated onto a MH bouillon plate and incubated at 37° C. for 20 h in incubator. After the incubation, the number of the colonies on each plate was counted. As compared with the blank control group, the lowest concentration of each of the test compound groups, at which 80% reduction in the colony number of the strains was achieved, was recorded as the MIC.

S. pneumoniae = assay: In vitro antibacterial activity (MIC), S. pneumoniae; type: cell-based; conditions: Streptococcus pneumoniae
Experimental: as §2, §3, §4

S. aureus = assay: In vitro antibacterial activity (MIC), S. aureus; type: cell-based, Staphylococcus Aureus; conditions: Staphylococcus aureus
Experimental: Strains: strain ATCC25923 is available from the American Type Culture Collection, and is used as a standard strain of Staphylococcus Aureus;
Liquid medium: MH bouillon culture medium, a product of BD Company, United States of American;
Tested Compounds: compounds 12a, 13 and 14 prepared according to the methods above, and Linezolid purchased from Pfizer.
as §2, §3, §4

E. faecalis = assay: In vitro antibacterial activity (MIC), E. faecalis; type: cell-based; conditions: Enterococcus faecalis
Experimental: as §2, §3, §4

L-02 = assay: Cytotoxicity experiment (MTT), L-02; type: cell-based; conditions: Homo sapiens, L02, 48 h, L-02 normal cells, read-out: Inhibition ratio
Experimental: as §1

[1] = S. agalactiae (5 strains), read-out: MIC
[2] = S. pneumoniae (10 strains), read-out: MIC
[3] = S. aureus (12 strains), read-out: MIC
[4] = E. faecalis (7 strains), read-out: MIC

MIC (S. agalactiae; [1])	MIC (S. pneumoniae; [2])	melting point	MIC (S. aureus; [3])	MIC (E. faecalis; [4])	Structure (SMILES)	cytotoxicity at 50 µM (HEK-293)	cytotoxicity at 50 µM (L-02)	MIC (S. agalactiae)	MIC (S. pneumoniae)	MIC (S. aureus)	MIC (E. faecalis)
0.25 to 16 µg/mL (≈ 0.632 to 40.5 µM)	0.125 to 16 µg/mL (≈ 0.316 to 40.5 µM)	79.9 to 82.1 °C	0.5 to 16 µg/mL (≈ 1.26 to 40.5 µM)	0.25 to 16 µg/mL (≈ 0.632 to 40.5 µM)	CC(=O)NC[C@H]1CN(c2ccc(-n3nccc3-c3ccccn3)c(F)c2)C(=O)O1 [Compound 14e, (S)-N-((3-(3-fluoro-4-(5-(pyridin-2-yl)-1H-pyrazol-1-yl)phenyl)-2-oxooxazolidin-5-yl)methyl)acetamide]	47%	39%				
0.25 to 8 µg/mL (≈ 0.568 to 18.2 µM)	0.5 to 8 µg/mL (≈ 1.14 to 18.2 µM)	175.4 to 177.6 °C	1 to 8 µg/mL (≈ 2.27 to 18.2 µM)	0.5 to 8 µg/mL (≈ 1.14 to 18.2 µM)	CSc1ccc(-c2ccnn2-c2ccc(N3C[C@H](CNC(C)=O)OC3=O)cc2F)cc1 [Compound 14f, (S)-N-((3-(3-fluoro-4-(5-(4-(methylthio)phenyl)-1H-pyrazol-1-yl)phenyl)-2-oxooxazolidin-5-yl)methyl) acetamide]	40%	29%				
0.5 to 8 µg/mL (≈ 1.26 to 20.2 µM)	0.25 to 4 µg/mL (≈ 0.632 to 10.1 µM)	74.5 to 76.3 °C	1 to 4 µg/mL (≈ 2.53 to 10.1 µM)	0.5 to 8 µg/mL (≈ 1.26 to 20.2 µM)	CC(=O)NC[C@H]1CN(c2ccc(-n3nccc3-c3ccncc3)c(F)c2)C(=O)O1 [Compound 14h, (S)-N-((3-(3-fluoro-4-(5-(pyridin-4-yl)-1H-pyrazol-1-yl)phenyl)-2-oxooxazolidin-5-yl)methyl)acetamide]	5%	14%				
4 to 32 µg/mL (≈ 8.43 to 67.5 µM)	2 to 32 µg/mL (≈ 4.22 to 67.5 µM)	90.5 to 92.3 °C	4 to 32 µg/mL (≈ 8.43 to 67.5 µM)	4 to 32 µg/mL (≈ 8.43 to 67.5 µM)	CC(=O)NC[C@H]1CN(c2ccc(-n3nccc3-c3cccc(Br)n3)c(F)c2)C(=O)O1 [Compound 14b, (S)-N-((3-(3-fluoro-4-(5-(6-bromopyridin-2-yl)-1H-pyrazol-1-yl)phenyl)-2-oxooxazolidin-5-yl)methyl) acetamide]	19.5%	21%				
0.5 to 8 µg/mL (≈ 1.05 to 16.9 µM)	0.5 to 8 µg/mL (≈ 1.05 to 16.9 µM)	92.7 to 95.4 °C	1 to 8 µg/mL (≈ 2.11 to 16.9 µM)	0.25 to 8 µg/mL (≈ 0.527 to 16.9 µM)	CC(=O)NC[C@H]1CN(c2ccc(-n3nccc3-c3ccc(Br)cn3)c(F)c2)C(=O)O1 [Compound 14g, (S)-N-((3-(3-fluoro-4-(5-(5-bromopyridin-2-yl)-1H-pyrazol-1-yl)phenyl)-2-oxooxazolidin-5-yl)methyl) acetamide]	10%	5.9%				
0.25 to 16 µg/mL (≈ 0.632 to 40.5 µM)	0.125 to 16 µg/mL (≈ 0.316 to 40.5 µM)		0.5 to 16 µg/mL (≈ 1.26 to 40.5 µM)	0.25 to 16 µg/mL (≈ 0.632 to 40.5 µM)	CC(=O)NC[C@H]1CN(c2ccc(-n3cc(-c4ccncc4)cn3)c(F)c2)C(=O)O1 [Compound 13a, (S)-N-((3-(3-fluoro-4-(4-(pyridin-4-yl)-1H-pyrazol-1-yl)phenyl)-2-oxooxazolidin-5-yl)methyl)acetamide]	11%	4%				

Structure (SMILES)	MIC (S. agalactiae; [1])	MIC (S. pneumoniae; [2])	melting point	MIC (S. aureus; [3])	MIC (E. faecalis; [4])	cytotoxicity at 50 µM (HEK-293)	cytotoxicity at 50 µM (L-02)	MIC (S. agalactiae)	MIC (S. pneumoniae)	MIC (S. aureus)	MIC (E. faecalis)
CC(=O)NC[C@H]1CN(c2ccc(-n3nccc3-c3ccc(Br)cc3)c(F)c2)C(=O)O1 [Compound 14d, (S)-N-((3-(3-fluoro-4-(5-(4-bromophenyl)-1H-pyrazol-1-yl)phenyl)-2-oxooxazolidin-5-yl)methyl)acetamide]			96.8 to 98.8 °C			55%	39%	2 to 16 µg/mL (≈ 4.23 to 33.8 µM)	1 to 8 µg/mL (≈ 2.11 to 16.9 µM)	2 to 16 µg/mL (≈ 4.23 to 33.8 µM)	2 to 16 µg/mL (≈ 4.23 to 33.8 µM)
